ChEMBL document CHEMBL5465560, “Selectivity Literature for EUbOPEN Chemogenomic Library” (2024)

How the values were obtained:
[1] = molecular target: T1, Tyrosine-protein kinase ITK/TSK (Homo sapiens) (UniProt Q08881); conditions: at 10 µM
T1 sequence (whole entry): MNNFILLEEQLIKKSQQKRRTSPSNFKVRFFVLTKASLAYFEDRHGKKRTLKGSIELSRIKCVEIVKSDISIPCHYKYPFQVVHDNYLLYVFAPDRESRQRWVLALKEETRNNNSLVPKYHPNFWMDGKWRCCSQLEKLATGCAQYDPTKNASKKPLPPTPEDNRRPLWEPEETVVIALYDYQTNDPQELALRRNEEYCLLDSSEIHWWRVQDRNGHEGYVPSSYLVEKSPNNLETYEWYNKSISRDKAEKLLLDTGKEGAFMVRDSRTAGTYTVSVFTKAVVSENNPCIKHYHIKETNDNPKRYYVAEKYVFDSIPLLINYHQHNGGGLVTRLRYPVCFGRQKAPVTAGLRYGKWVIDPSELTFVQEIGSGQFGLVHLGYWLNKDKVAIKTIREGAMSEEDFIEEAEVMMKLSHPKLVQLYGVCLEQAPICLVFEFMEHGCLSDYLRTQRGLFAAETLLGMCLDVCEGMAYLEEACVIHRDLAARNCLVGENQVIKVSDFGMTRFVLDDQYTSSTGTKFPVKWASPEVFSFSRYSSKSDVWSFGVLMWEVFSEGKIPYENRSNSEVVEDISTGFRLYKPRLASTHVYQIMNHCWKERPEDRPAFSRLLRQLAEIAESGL

[2] = molecular target: MAP/microtubule affinity-regulating kinase 3 (Homo sapiens) (UniProt P27448); experiment: Selectivity interaction (ActivX KiNativ screen (kinase selectivity in THP-1 cell lysates)) EUB0000639a MARK3; format: subcellular; conditions: lysate, at 5 µM
MAP/microtubule affinity-regulating kinase 3 (Homo sapiens), sequence (P27448 whole entry, looked up, the tested form may be a part): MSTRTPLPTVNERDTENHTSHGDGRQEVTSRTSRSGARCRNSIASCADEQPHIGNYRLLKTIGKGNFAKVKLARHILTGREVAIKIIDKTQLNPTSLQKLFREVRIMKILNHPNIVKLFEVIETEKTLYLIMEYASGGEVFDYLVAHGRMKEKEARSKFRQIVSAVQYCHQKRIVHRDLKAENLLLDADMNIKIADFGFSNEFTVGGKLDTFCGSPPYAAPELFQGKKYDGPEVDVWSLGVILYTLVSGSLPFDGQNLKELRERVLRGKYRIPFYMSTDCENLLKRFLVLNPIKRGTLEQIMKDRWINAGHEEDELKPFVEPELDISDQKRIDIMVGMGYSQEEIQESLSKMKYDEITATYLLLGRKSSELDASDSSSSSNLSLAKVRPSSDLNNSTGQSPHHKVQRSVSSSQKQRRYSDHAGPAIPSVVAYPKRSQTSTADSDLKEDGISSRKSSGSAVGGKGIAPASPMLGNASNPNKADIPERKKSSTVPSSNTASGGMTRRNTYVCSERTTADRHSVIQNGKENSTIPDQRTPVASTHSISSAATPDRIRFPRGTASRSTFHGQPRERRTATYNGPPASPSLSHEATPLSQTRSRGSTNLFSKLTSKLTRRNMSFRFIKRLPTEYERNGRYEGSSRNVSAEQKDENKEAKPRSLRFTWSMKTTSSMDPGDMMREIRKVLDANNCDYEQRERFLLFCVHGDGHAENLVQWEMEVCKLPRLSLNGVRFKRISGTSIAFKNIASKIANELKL

[3] = molecular target: LIM domain kinase 2 (Homo sapiens) (UniProt P53671); conditions: at 10 µM
LIM domain kinase 2 (Homo sapiens), sequence (P53671 whole entry, looked up, the tested form may be a part): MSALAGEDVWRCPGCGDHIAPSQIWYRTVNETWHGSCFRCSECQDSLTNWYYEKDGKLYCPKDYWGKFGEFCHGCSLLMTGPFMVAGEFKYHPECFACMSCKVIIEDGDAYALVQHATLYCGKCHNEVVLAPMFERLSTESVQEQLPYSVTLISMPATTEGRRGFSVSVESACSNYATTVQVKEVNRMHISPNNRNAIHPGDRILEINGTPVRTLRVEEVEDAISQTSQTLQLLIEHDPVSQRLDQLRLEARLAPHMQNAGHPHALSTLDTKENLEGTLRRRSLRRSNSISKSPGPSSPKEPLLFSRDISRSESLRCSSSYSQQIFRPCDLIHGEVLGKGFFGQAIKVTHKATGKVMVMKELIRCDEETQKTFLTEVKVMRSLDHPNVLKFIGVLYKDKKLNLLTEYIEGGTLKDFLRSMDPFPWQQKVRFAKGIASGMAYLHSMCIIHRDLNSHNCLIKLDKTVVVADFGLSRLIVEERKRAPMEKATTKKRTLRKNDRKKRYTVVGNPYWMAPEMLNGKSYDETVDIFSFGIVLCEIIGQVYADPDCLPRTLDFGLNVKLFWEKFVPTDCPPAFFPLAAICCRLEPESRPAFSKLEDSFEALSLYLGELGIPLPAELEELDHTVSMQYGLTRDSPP

[4] = molecular target: T2, Serine/threonine-protein kinase D2 (Homo sapiens) (UniProt Q9BZL6); experiment: Selectivity interaction (ProQinase) EUB0000171b PRKD2
T2 sequence (whole entry): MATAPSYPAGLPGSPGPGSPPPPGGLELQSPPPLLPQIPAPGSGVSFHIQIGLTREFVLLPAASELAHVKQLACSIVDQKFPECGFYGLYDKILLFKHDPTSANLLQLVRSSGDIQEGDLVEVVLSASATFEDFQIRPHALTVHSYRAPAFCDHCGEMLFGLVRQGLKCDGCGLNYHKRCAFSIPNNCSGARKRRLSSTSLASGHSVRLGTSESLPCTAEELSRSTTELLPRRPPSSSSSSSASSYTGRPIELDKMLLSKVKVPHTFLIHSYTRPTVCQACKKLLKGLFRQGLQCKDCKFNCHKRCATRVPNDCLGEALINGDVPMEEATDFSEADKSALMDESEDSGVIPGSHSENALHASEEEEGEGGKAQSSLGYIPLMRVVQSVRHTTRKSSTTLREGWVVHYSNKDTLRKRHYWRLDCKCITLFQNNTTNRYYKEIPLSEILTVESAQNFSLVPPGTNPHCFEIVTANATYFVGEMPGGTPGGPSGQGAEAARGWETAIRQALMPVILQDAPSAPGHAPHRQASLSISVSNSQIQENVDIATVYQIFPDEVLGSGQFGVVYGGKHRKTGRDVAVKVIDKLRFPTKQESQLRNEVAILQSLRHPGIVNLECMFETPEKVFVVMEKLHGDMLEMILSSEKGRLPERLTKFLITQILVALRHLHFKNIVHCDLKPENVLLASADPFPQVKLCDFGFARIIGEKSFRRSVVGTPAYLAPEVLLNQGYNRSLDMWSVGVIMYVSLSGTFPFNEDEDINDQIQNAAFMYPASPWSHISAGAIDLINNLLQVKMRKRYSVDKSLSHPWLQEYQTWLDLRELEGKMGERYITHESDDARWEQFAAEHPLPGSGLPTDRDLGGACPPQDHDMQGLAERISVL

[5] = molecular target: Cyclin-dependent kinase 9 (Homo sapiens, UniProt P50750); experiment: Selectivity interaction (KinomeScan (DiscoverX)) EUB0000045b CDK9
Cyclin-dependent kinase 9, sequence (P50750 whole entry): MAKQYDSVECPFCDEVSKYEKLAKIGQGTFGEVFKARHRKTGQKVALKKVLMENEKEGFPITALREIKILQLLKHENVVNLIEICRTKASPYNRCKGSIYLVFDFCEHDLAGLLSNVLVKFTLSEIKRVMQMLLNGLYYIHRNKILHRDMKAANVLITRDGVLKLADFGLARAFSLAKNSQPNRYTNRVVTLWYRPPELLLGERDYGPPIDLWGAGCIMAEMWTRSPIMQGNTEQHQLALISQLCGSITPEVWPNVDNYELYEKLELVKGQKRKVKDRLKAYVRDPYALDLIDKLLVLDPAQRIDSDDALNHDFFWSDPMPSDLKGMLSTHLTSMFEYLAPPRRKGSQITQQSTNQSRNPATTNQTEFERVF

[6] = molecular target: T3, Testis-specific serine/threonine-protein kinase 3 (Homo sapiens) (UniProt Q96PN8); experiment: Selectivity interaction (SelectScreen profiling (Invitrogen)) EUB0000607a TSSK3; conditions: at 2 µM
T3 sequence (whole entry): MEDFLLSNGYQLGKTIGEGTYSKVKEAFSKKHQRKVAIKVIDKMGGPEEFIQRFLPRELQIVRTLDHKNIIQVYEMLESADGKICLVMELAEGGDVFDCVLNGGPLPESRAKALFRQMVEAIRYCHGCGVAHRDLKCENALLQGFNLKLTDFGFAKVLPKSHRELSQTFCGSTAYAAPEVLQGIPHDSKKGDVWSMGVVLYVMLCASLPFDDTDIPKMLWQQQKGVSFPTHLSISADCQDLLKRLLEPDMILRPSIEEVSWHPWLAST

**Q.** Which % of control [1] does the source give for Cc1cc([C@@H](C)Nc2ccccc2C(=O)O)c2nc(N3CCOCC3)cc(=O)n2c1 [AZD-6482] here?
**A.** 98%

**Q.** With CC[C@@H]1[C@H](F)C(=O)N[C@@H]1COc1nccc2cc(C(N)=O)c(OC)cc12 [ZIMLOVISERTIB] as the compound, how does the % of inhibition [2] read?
**A.** 36.9%

**Q.** For CCN(CC)CCCCNc1ncc2cc(-c3cc(OC)cc(OC)c3)c(NC(=O)NC(C)(C)C)nc2n1, which % of control [3] is on record?
**A.** 100%

**Q.** Which % of control ([4]; at 1 µM) does the source give for C=CC(=O)Nc1cccc(C(=O)Nc2ccc(Nc3cc(-c4[nH]c(SC)nc4C)ccn3)cc2)c1 here?
**A.** 69%

**Q.** And the % of control ([4]; at 5 µM)?
**A.** 43%

**Q.** With C=CC(=O)Nc1cc(-n2c(=O)ccc3cnc4ccc(-c5ccc(NS(C)(=O)=O)cc5)cc4c32)ccc1C as the compound, how does the % of control ([5]; at 1 µM) read?
**A.** 100%

**Q.** And the % of control ([5]; at 10 µM)?
**A.** 95%

**Q.** With CNC(=O)Nc1ccc(-c2nc(N3CC4CCC(C3)O4)c3cnn(C4CCC5(CC4)OCCO5)c3n2)cc1 as the compound, how does the % of inhibition [6] read?
**A.** 3%
